Values joined by “and” are separate entries in the source; they are usually repeats but may differ in a detail not shown here. Equal values may be shown once.
Assays:
[1] = Solubility / kinetic solubility in pH 6.8 phosphate buffer; assay type: physicochemical; details: 37 °C, thermodynamic from solid
Procedure: Kinetic solubility is a supersaturated or metastable and time-dependent state as opposed to true time-independent equilibrium solubility. […] The bottle was rotated at 50 rpm up to 4 hours at 37° C. Samples were collected at 5, 10, 15, 20, 25, 30, 45, 60, 75, 90, 120, 180, and 240 minutes time points. The samples were filtered using […] PVDF filter and diluted with acetonitrile in 1:1 ratio immediately. The samples were analyzed by HPLC. The concentration of phosphate buffer had only a minor effect on the solubility of the DS or the amorphous solid dispersion (extrudate), and the surfactant made it more difficult to distinguish the enhancement of the solubility.
Solubility Studies. […] Amorphous solid dispersions with 30% drug loading of Formula III with three different stabilizing polymers were evaluated. In particular, excess sample (either Formula (III) milled extrudate or Formula (III) as a control) was added into the bottle containing 120 mL of each media to ensure saturation.
At the same time, SLS diminished the discrimination between the crystalline and amorphous forms. Thus it is advisable to avoid SLS in the dissolution media for kinetic solubility studies.

[2] = Particle size distribution by laser diffraction (nanomilled suspensions, cast films, layered beads); assay type: physicochemical; details: crystalline drug particles used to prepare Nanosuspension #001-35 (Table 13A)
Procedure: “Particle size distribution” or “PSD” or “size distribution” refers to the size of particles present in their relative proportions in a sample, as measured by laser diffraction spectroscopy. In aspects, the particle size distribution refers to the particle size distribution of all the drug particles in the composition. The particle size distribution of a sample is measured by laser diffraction spectroscopy. Laser diffraction spectrometers are commercially available as, e.g., MASTERSIZER® 3000 from Malvern Instruments Ltd, and HORIBA® LA-950 by Horiba Instruments, Inc., Irvine Calif. For laser diffraction spectroscopy, particle size distribution is generally described by D values, such as D90. In aspects, the laser diffraction spectroscopy can be analyzed by the Fraunhofer theory. In aspects, the laser diffraction spectroscopy can be analyzed by the Mie scattering theory. In aspects, the laser diffraction spectroscopy can be analyzed by a combination of the Fraunhofer theory and the Mie scattering theory.
Particle size measurements were obtained using water as dispersing media in the fraction cell of the laser diffraction particle size analyzer and analyzed using a refractive index of 1.60+0.01i in water.
Samples at different time points were withdrawn and checked for particle size distribution by laser diffraction and appearance by optical microscopy.

[3] = Assay and impurities of MBP dispersions, initial and on storage at 40° C./75% RH; assay type: physicochemical; details: initial (MBP) or API
Procedure: Chemical Characterization of samples.
Stability Studies. All initial samples of the MBP were kept in closed 75 mL HDPE bottles and monitored at 40° C. and 75% relative humidity (RH) for up to 3 months. The physical state and chemical stability were reported by XRPD, and assay and impurity. […] The assay and impurity results from the MBP dispersions, stored at 40° C. and 75% relative humidity closed conditions for up to 3 months, and at 40° C. and 75% relative humidity open conditions for up to 2 weeks are reported in the Tables 9D and 9E below.

[4] = Assay and related substances by HPLC of nanosuspensions, after milling and on storage; assay type: physicochemical
Procedure: Assay and Related Substance Testing. Formulations B, D, and E were tested for assay and related substances (RS) to detect the compatibility with the excipients. […] Assay/RS was not determined at TO for this study.

[5] = Dissolution of un-milled vs nano-milled Formula (III) suspensions (sink and non-sink); assay type: physicochemical
Procedure: Dissolution at non-sink conditions was tested to further compare un-milled and milled Formula (III) formulations.

[6] = Chemical characterization (assay, impurities) of drug-layered beads and capsules, initial and at CRT/ACC storage; assay type: physicochemical
Source text: The amount of the smaller size drug nanoparticles increased as the level of coating increased, with the smaller hump representing the particle size distribution of the drug nanoparticle suspension and the larger hum representing the particle size distribution of the sugar spheres, which largely remained unchanged throughout the process. […] The particle size distribution of the drug nanoparticles on sugar spheres was similar to that of the particle size distribution of drug nanoparticles in the film.
The assay was low, most likely due to the size of the batch (200 grams) since the minimum amount of drug suspension had to be used, which is smaller than the optimum size for the Vector FL1 fluid bed.
The capsules were stored and monitored at controlled room temperature (CRT, 25° C./60% RH) and accelerated conditions (ACC, 40° C./75% RH), and evaluated for chemical characterization up to 3 months, as shown in Table 15C and Table 15D, respectively.

[7] = Assay (% LC) and impurities by HPLC of HME extrudates and tablets, initial and on storage
Source text: “Total impurities” refers to in the common pharmaceutical nomenclature as the total sum of all measured impurities and degradation products from the drug substance and is also referred to as total related substances. […] A gradient method was used with 0.1% (V/V) methanesulfonic acid in water as the first mobile phase and acetonitrile as the second. A C18 column with UV detection at 225 nm was used. Acetonitrile-water mixture was used for dilution of the samples.
Chemical stability. […] The impurity profile of the formulations was compared to the crystalline Formula (III) used in the HME extrudate (Table 2C).
Thermal degradation was closely monitored due to the high processing temperature. […] Selected major impurities in the extrudate that could be attributed to the processing condition were summarized based on the relative retention time (RRT) and shown in Table 2E.
Chemical Characterization of stability samples.

[8] = initial (formulation) or API as used, listed as API

solubility at 240 min ([1]; phosphate buffer with sodium lauryl sulphate, pH 6.8, aqueous with cosolvent or surfactant or cyclodextrin, 10 mM Phosphate buffer, pH 6.8, 0.5% SLS): 419 µg/mL
solubility at 240 min ([1]; phosphate buffer with sodium lauryl sulphate, pH 6.8, aqueous with cosolvent or surfactant or cyclodextrin, 10 mM Phosphate buffer, pH 6.8, 1.0% SLS): 593 µg/mL
solubility at 240 min ([1]; phosphate buffer with sodium lauryl sulphate, pH 6.8, aqueous with cosolvent or surfactant or cyclodextrin, 50 mM Phosphate buffer, pH 6.8, 0.5% SLS): 386 µg/mL
solubility at 240 min ([1]; phosphate buffer with sodium lauryl sulphate, pH 6.8, aqueous with cosolvent or surfactant or cyclodextrin, 50 mM Phosphate buffer, pH 6.8, 1.0% SLS): 627 µg/mL
solubility at 240 min ([1]; phosphate buffer, pH 6.8, aqueous buffer, 10 mM Phosphate buffer, pH 6.8, No Surfactant): 23 µg/mL
solubility at 240 min ([1]; phosphate buffer, pH 6.8, aqueous buffer, 50 mM Phosphate buffer, pH 6.8, No Surfactant): 19 µg/mL
Particle Size Distribution D10 [2]: 73 nm
Particle Size Distribution D50 [2]: 169 nm
Particle Size Distribution D90 [2]: 714 nm
Total Impurity % [3]: 0.82%
Total Specified Impurity % [3]: 0.46%
Potency (Assay %) ([4]; T = 0 (formulation) or API): 100%
% Impurity by RRT 0.80 ([4]; T = 0 or API): 0.2%
% Impurity by RRT 0.94 ([4]; T = 0 or API): 0.2%
% Impurity by RRT 10.6 ([4]; T = 0 or API): 0.2%
Total Impurity % ([4]; T = 0 or API): 0.6%
Related substances (RS) of the standard ([4]; standard, unmilled): 0.6%
Solubility dependence on pH [5]: increases significantly below pH 3
Time to complete dissolution ([5]; acid medium, sink condition): 45 min
Solubility of a 100 mg dose in 900 mL phosphate buffer at pH 6.8 ([5]; non-sink condition): not fully soluble
Total Impurities ([6]; API): 0.8%
Total Impurities % ([6]; initial chemical characterization of the beads (Table 14C)): 0.80%
Total Impurities ([7]; initial (Table 8E)): 0.8%
Total Impurities % [7, 8]: 0.82% and 0.818% and 0.80%
Total Specified Impurities % [7, 8]: 0.46% and 0.462%
Structure (SMILES): Cc1ccc(-c2nc(N)nc3c2nnn3Cc2cccc(COC3CCOC3)n2)o1 (stereo not shown) [Formula (III)]

From patent US20190231783A1, “PHARMACEUTICAL FORMULATIONS” (Corvus Pharmaceuticals, Inc., priority 2018, published 2019)
